We go through 2 compounds from US20080004282A1, “Compositions and methods for modulating gated ion channels” (PainCeptor Pharma Corporation, priority 2006, published 2008).

The experiment addresses T1, ASIC1a (Homo sapiens, UniProt P78348).
T1 sequence (P78348 1-528): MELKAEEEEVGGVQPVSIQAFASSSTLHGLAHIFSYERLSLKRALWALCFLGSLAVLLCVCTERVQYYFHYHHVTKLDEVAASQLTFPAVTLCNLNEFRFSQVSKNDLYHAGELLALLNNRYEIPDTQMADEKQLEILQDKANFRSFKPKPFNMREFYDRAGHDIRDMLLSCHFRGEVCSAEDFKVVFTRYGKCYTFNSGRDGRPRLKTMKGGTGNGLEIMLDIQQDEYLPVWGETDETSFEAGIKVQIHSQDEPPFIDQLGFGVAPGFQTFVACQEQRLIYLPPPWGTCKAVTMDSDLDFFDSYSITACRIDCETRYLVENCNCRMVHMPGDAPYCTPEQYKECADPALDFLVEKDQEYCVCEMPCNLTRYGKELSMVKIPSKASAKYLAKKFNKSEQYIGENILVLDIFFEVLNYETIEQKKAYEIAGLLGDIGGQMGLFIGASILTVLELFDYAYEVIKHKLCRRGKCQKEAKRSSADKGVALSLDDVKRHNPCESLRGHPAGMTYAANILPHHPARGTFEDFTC
In words: Two-electrode voltage clamp of acid-induced currents in Xenopus laevis oocytes. The experiment is classed as cell-based. The arrangement: expressed in transfected cells; host or cells: Xenopus laevis oocytes, nuclear microinjection of an expression vector such as pCDNA3. The conditions noted are these: for inhibition at 50 µM: Xenopus oocytes, read-out: % inh. at 50 μM (Xo). Here is the method:
Screening and Bioanalysis of ASIC Antagonists in Xenopus laevis oocytes
This example describes the in vitro assessment of the activity of the compounds of the present invention.
Two-electrode voltage clamp electrophysiological assays in Xenopus laevis oocytes expressing gated ion channels are performed as follows:
Oocytes are surgically removed from adult Xenopus laevis and treated for 2 h at room temperature with 1 mg/ml type I collagenase (Sigma) in Barth's solution under mild agitation. Selected oocytes at stage IV-V are defolliculated manually before nuclear microinjection of 2.5-5 ng of a suitable expression vector, such as pCDNA3, comprising the nucleotide sequence encoding a gated ion channel subunit protein. In such an experiment, the oocytes express homomultimeric proton-gated ion channels on their surface. In an alternate experiment, one, two, three or more vectors comprising the coding sequences for distinct gated ion channel subunits are co-injected in the oocyte nuclei. In the latter case, oocytes express heteromultimeric proton-gated ion channels. For example, ASIC2a and/or ASIC3 subunits in pcDNA3 vector are co-injected at a 1:1 cDNA ratio. After 2-4 days of expression at 19° C. in Barth's solution containing […] gentamicin and 1.8 mM CaCl2, gated ion channels are activated by applying an acidic solution (pH<7) and currents are recorded in a two electrode voltage-clamp configuration, using an OC-725B amplifier (Warner Instruments). Currents are acquired and digitized at 500 Hz on an Apple Imac G3 computer with an A/D NB-MIO-16XL interface (National Instruments) and recorded traces are post-filtered at 100 Hz in Axograph (Axon Instruments) (Neher, E. and Sakmann, B. (1976) Nature 260:799-802). Once impaled with the microelectrodes, oocytes are continuously superfused at 10-12 ml/min with a modified Ringer's solution containing 97 mM NaCl, 2 mM KCl, 1.8 mM CaCl2, and 10 mM HEPES brought to pH 7.4 with NaOH (Control Ringer). Test Ringer solution is prepared by replacing HEPES with MES and adjusting the pH to the desired acidic value. Compounds of the present invention are prepared in both the Control and Test Ringer solutions and applied to oocytes at room temperature through a computer-controlled switching valve system. Osmolarity of all solutions is adjusted to 235 mOsm with choline chloride. Similarly, recordings can also be acquired in an automated multichannel oocytes system as the OpusExpress™ (Molecular Devices, Sunnyvale, USA).
FIGS. 1A and 2A illustrate the inhibitory effects of Compounds 12 and 44 on acid-induced activation of recombinant homomeric hASIC1a channels. FIGS. 1A and 2A show the dose-dependent inhibition of the acid-induced hASIC1a currents recorded from Xenopus laevis oocytes using the two-electrode voltage clamp method (as described in this example) in the absence or presence of increasing concentration of the compounds.
For orientation: In two-electrode clamp one electrode senses voltage and the other passes current.

Each structure is given as a SMILES string. Where two headings read alike, the source gives them in different places.

In general, IC50 refers to the concentration needed to halve the response being measured.

`CCN1CCc2c(-c3ccccc3)cc(C#N)c(N)c2C1` [Compound 12, 8-Amino-2-ethyl-5-phenyl-1,2,3,4-tetrahydro-isoquinoline-7-carbonitrile]: the inhibition at 50 µM is greater than 50%. For the same compound, the IC50 (Xenopus laevis oocytes, three point dose-response, read-out: IC50, half maximal inhibition of the acid-evoked response in hASIC1a) amounted to 5.9 µM.
For the compound `CCN1CCc2c(-c3cc(Cl)ccc3OC)cc(C#N)c(N)c2C1` [Compound 44], the IC50 worked out at 8.5 µM and the inhibition at 50 µM was greater than 50%.
